Data published in patent publication EP1000062B1, “TRICYCLIC VASOPRESSIN AGONISTS” (Wyeth, priority 1997, dated 1999).

Tests used:
Vasopressin V2 [1] = assay: Vasopressin V2 agonist effects of test compounds in normal conscious homozygous Brattleboro rats with central diabetes insipidus; assay type: in vivo; conditions: Brattleboro (BB) rats, oral 10 mg/kg, urine collected for six hours; for Osmolality (% Increase): change in osmolality as percent of control; for Urine Volume (% decrease): vs. control
From the text: Vasopressin V2 Agonist Effects of Test Compounds in Normal Conscious Homozygous Brattleboro Rats with Central Diabetes Insipidus
Male or female homozygous Brattleboro rats (Harlan Sprague Dawley, Inc., Indianapolis, IN) of 250-350 g body weight were supplied with standard rodent diet (Purina Rodent Lab. Chow 5001) and water ad libitum. On the day of test, rats were placed individually into metabolic cages equipped with devices to separate the feces from the urine and containers for collection of urine. Test compound or reference agent was given at an oral dose of 1 to 10 mg/kg in a volume of 10 ml /kg. The vehicle used was 20% dimethylsulfoxide (DMSO) in 2.5% preboiled corn starch. During the test, rats were provided with water ad libitum. Urine was collected for six hours after dosing of the test compound. At the end of six hours, urine volume was measured. Urinary osmolality was determined using a Fiske One-Ten Osmometer (Fiske Associates, Norwood, MA, 02062) or an Advanced CRYOMATIC Osmometer, Model 3C2 (Advanced Instruments, Norwood, MA). Determinations of Na^+, K^+ and Cl^- ion were carried out using ion specific electrodes in a Beckman SYNCHRON EL-ISE Electrolyte System analyzer. This animal model was mainly used for evaluation of potency and duration of action of the active compounds.

Vasopressin V2 [2] = assay: Vasopressin V2 agonist effects of test compounds in normal conscious water-loaded rats; assay type: in vivo; conditions: Sprague-Dawley (CD) rats, oral 10 mg/kg, urine collected for four hours; for Osmolality (% Increase): change in osmolality as percent of control; for Urine Volume (% decrease): vs. control
Procedure: Vasopressin V2 Agonist Effects of Test Compounds in Normal Conscious Water-Loaded Rats:
On the day of test, rats were placed individually into metabolic cages equipped with devices to separate the feces from the urine and containers for collection of urine. Test compound or reference agent was given at an oral dose of 10 mg/kg in a volume of 10 ml /kg. […] Thirty minutes after dosing the test compound, rats were gavaged with water at 30 ml /kg into the stomach using a feeding needle. During the test, rats were not provided with water or food. Urine was collected for four hours after dosing of the test compound. At the end of four hours, urine volume was measured. […] Determinations of Na^+, K^+ and Cl^- ion were carried out using ion specific electrodes in a Beckman SYNCHRON EL-ISE Electrolyte System analyzer. […] In the screening test, two rats were used for each compound. If the difference in the urine volume of the two rats was greater than 50%, a third rat was used.

Molecule	Osmolality (% Increase) (Vasopressin V2 [1])	Urine Volume (% decrease) (Vasopressin V2 [1])	Osmolality (% Increase) (Vasopressin V2 [2])	Urine Volume (% decrease) (Vasopressin V2 [2])
CC(=O)n1ccc(-c2ccc(C(=O)N3Cc4cccn4Cc4ccccc43)cc2)n1 [Example 30, 1-{3-[4-(5H,11H-Pyrrolo[2,1-c][1,4]benzodiazepine-10-carbonyl)-phenyl]-pyrazol-1-yl}-ethanone]	334%	81%		
O=C(c1ccc(-c2ccn(C(=O)c3cccs3)n2)cc1)N1Cc2cccn2Cc2ccccc21 [Example 34, (5H,11H-Pyrrolo[2,1-c][1,4]benzodiazepin-10-yl)-{4-[1-(thiophene-2-carbonyl)-1H-pyrazoly-3-yl]phenyl}-methanone]	407%	76%		
Cc1ccccc1C(=O)n1ccc(-c2ccc(C(=O)N3Cc4cccn4Cc4ccccc43)cc2)n1 [Example 36, {4-[1-(2-Methyl-benzoyl)-1H-pyrazol-3-yl]-phenyl}-(5H,11H-pyrrolo[2,1-c][1,4]benzodiazepin-10-yl)-methanone]	164%	66%		
O=C(c1ccc(-c2ccn(C(=O)c3ccc(Cl)cc3Cl)n2)cc1)N1Cc2cccn2Cc2ccccc21 [Example 38, {4-[1-(2,4-Dichloro-benzoyl)-1H-pyrazol-3-yl]-phenyl}-(5H,11H-pyrrolo[2,1-c][1,4]benzodiazepin-10-yl)-methanone]	256%	66%		
O=C(c1ccc(-c2ncn[nH]2)cc1Cl)N1Cc2cccn2Cc2ccccc21 [Example 83, [2-Chloro-4-(2H-1,2,4-triazol-3-yl)-phenyl]-(5H,11H-pyrrolo[2,1-c][1,4]-benzodiazepin-10-yl)-methanone]			442%	85%
Cn1ncnc1-c1ccc(C(=O)N2Cc3cccn3Cc3ccccc32)c(Cl)c1 [Example 84, [2-Chloro-4-(2-methyl-2H-[1,2,4]triazol-3-yl)-phenyl]-(5H,11H-pyrrolo [2,1-c][1,4]benzodiazepin-10-carbonyl)-methanone]			291%	56%
Cc1nc(-c2ccc(C(=O)N3Cc4cccn4Cc4ccccc43)c(Cl)c2)n(C)n1 [Example 85, 4-[(2,5-Dimethyl-2H-[1,2,4]triazol-3-yl)-2-chloro-phenyl]-(5H,11H-pyrrolo[2,1-c][1,4]benzodiazepin-10-carbonyl)-methanone]			436%	76%
O=C(c1ccc(-c2nnn[nH]2)cc1Cl)N1Cc2cccn2Cc2ccccc21 [Example 86, [2-Chloro-4-(1H-tetrazol-5-yl)-phenyl]-(5H,11H-pyrrolo[2,1-c][1,4]benzodiazepin-10-yl)-methanone]			86%	5%
Cc1ccn(-c2ccc(C(=O)N3Cc4ccc(CN(C)C)n4Cc4ccccc43)c(Cl)c2)n1 [Example 87, [2-Chloro-4-(3-methyl-pyrazol-1-yl)-phenyl]-(3-dimethylaminomethyl-5H,11H-pyrrolo[2,1-c][1,4]benzodiazepin-10-yl)-methanone]			214%	71%
Cc1ccn(-c2ccc(C(=O)N3Cc4ccc(Br)n4Cc4ccccc43)c(Cl)c2)n1 [Example 88, (3-Bromo-5H,11H-pyrrolo[2,1-c][1,4]benzodiazepin-10-yl)-[2-chloro-4-(3-methyl-pyrazol-1-yl)-phenyl]-methanone]			226%	68%
Cc1ccn(-c2ccc(C(=O)N3Cc4cccn4Cc4ccccc43)c(Br)c2)n1 [Example 90]			413%	61%
O=C(c1ccc(F)cc1F)N1Cc2cccn2Cc2ccccc21 [Example 91, (2,4-Difluoro-phenyl)-(5H,11H-pyrrolo[2,1-c][1,4]benzodiazepin-10-yl)-methanone]			69%	22%
Cc1ccn(-c2ccc(C(=O)N3Cc4cccn4Cc4ccccc43)c(F)c2)n1 [Example 92, [2-Fluoro-4-(3-methyl-pyrazol-1-yl)-phenyl]-(5H,11H-pyrrolo[2,1-c][1,4]-benzodiazepin-10-yl)-methanone]			454%	69%
Cc1ccn(-c2ccc(C(=O)N3Cc4ccnn4Cc4ccccc43)c(C(F)(F)F)c2)n1 [Example 95, [4-(3-Methylpyrazol-1-yl)-2-trifluoromethylphenyl]-[5H,11H-pyrazolo[5,1-c]-[1,4]benzodiazepin-10-yl)-methanone]			300%	68%
Cc1ccn(-c2ccc(C(=O)O)c(Cl)c2)n1 [Example 97, 2-Chloro-4-(3-methyl-1H-pyrazol-1-yl)-benzoic acid]			106%	3%
O=C(c1ccc(-n2cccn2)nc1Cl)N1Cc2cccn2Cc2ccccc21 [Example 99, (2-Chloro-6-pyrazol-1-yl-pyridin-3-yl)-(5H,11H-pyrrolo[2,1-c][1,4]benzodiazepin-10-yl)-methanone]			205%	43%
Cc1ccn(-c2ccc(C(=O)N3Cc4cccn4Cc4ccccc43)c(Cl)n2)n1 [Example 100, [2-Chloro-6-(3-methylpyrazol-1-yl)-pyridin-3-yl]-(5H,11H-pyrrolo[2,1-c] [1,4]benzodiazepin-10-yl)-methanone]			248%	24%
Cc1cnn(-c2ccc(C(=O)N3Cc4cccn4Cc4ccccc43)c(Cl)n2)c1 [Example 101, [2-Chloro-6-(4-methylpyrazol-1-yl)-pyridin-3-yl](5H,11H-pyrrolo[2,1-c] [1,4]benzodiazepin-10-yl)-methanone]			376%	76%
COc1cc(-n2ccc(C)n2)ccc1C(=O)N1Cc2cccn2Cc2ccccc21 [Example 107, [2-Methoxy-4-(3-methyl-pyrazol-1-yl)-phenyl](5H,11H-pyrrolo[2,1-c][1,4]-benzodiazepin-10-yl) methanone]			125%	31%
COc1cc(-n2ccc(C)n2)ccc1C(=O)N1Cc2ccc(CN(C)C)n2Cc2ccccc21 [Example 108, (3-Dimethylaminomethyl-5H,11H-pyrrolo[2,1-c][1,4]benzodiazepin-10-yl)[2-methoxy-4-(3-methyl-pyrazol-1-yl)-phenyl]-methanone]			145%	30%
Cc1ccn(-c2ccc(C(=O)N3Cc4cccn4Cc4ccccc43)c(O)c2)n1 [Example 109]			95%	21%
Cn1cc(-c2ccc(C(=O)N3Cc4cccn4Cc4ccccc43)c(Cl)c2)cn1 [Example 115, [2-Chloro-4-(1-methyl-1H-pyrazol-4-yl)phenyl) (5H,11H-pyrrolo[2,1-c][1,4]-benzodiazepin-10-yl)-methanone]			229%	66%
Cc1ccn(-c2ccc(C(=O)N3Cc4ccnn4Cc4ccccc43)c(Cl)c2)n1 [Example 116, [2-Chloro-4-(3-methyl-pyrazol-1-yl)-phenyl]-(4H,10H-pyrazolo[5,1-c][1,4]-benzodiazepin-5-yl)-methanone]			256%	66%
Cc1ccn(-c2ccc(C(=O)N3Cc4nnnn4Cc4ccccc43)c(Cl)c2)n1 [Example 117]			311%	68%
Cn1ccc(-c2ccc(C(=O)N3Cc4ccnn4Cc4ccccc43)cc2)n1 [Example 120A, [4-(1-Methyl-1H-pyrazol-3-yl)phenyl](4H,10H-pyrazolo[5,1c][1,4]-benzodiazepin-5-yl) methanone]			269%	66%
Cn1nccc1-c1ccc(C(=O)N2Cc3ccnn3Cc3ccccc32)cc1 [Example 120B, [4-(2-Methyl-1H-pyrazol-3-yl)phenyl](4H,10H-pyrazolo[5,1c][1,4]-benzodiazepin-5-yl) methanone]			272%	67%
CC(=O)c1ccc(C(=O)N2Cc3cccn3Cc3ccccc32)c(Cl)c1 [Example 121, 1-[4-(5H,11H-pyrrolo[2,1-c][1,4]benzodiazepine-10-carbonyl)-3-chlorophenyl]-ethanone]			155%	22%
[2-Chloro-4-(3-methyl-4-ethynyl-phenyl) (5H,11H-pyrrolo[2,1-c][1,4]-benzodiazepin-10-yl)-methanone [Example 123]			663%	88%
